From patent US5032595A, “Method of stimulating steroidogenesis with alpidem” (FIDIA-Georgetown Institute for the Neurosciences, priority 1989, dated 1991)

Columns and labels:
[1] = biological target: T1, peripheral-type benzodiazepine receptor (PBR) in Y-1 cells (Mus musculus, UniProt P50637); assay: [3H]PK 11195 binding in Y-1 adrenocortical cells; conditions: 37° C.; for rank order of compound displacement potency against [3H]PK 11195 binding: FIG. 2a
T1 construct: Y-1 cell cultures were scraped from the flasks; host or cells: Y-1 mouse adrenal tumor cells
Protocol: (§1) Cells--The Y-1 adrenal mouse tumor cell line used in these studies was obtained from the American Type Culture Collection (ATCC #CCL 79). Stock cultures were grown in modified Waymouth's MB752/l medium containing 20 mM HEPES, 1.2 g/l NaHCO3, 15% horse serum and 2.5% fetal calf serum, pH 7.4. Before use the cells were washed three times at 30 min intervals, with serum-free media in order to eliminate serum components that may interfere with the assays and were incubated for the indicated time periods in the presence of the drugs under investigation. Bovine fasciculata-reticularis and adrenocortical cells from adult (300 g) Sprague-Dawley rats were prepared as previously described by Yanagibashi et al, (1989) Endocrinology 124; 2838-2391.
Radioligand binding assays--Y-1 cell cultures were scraped from the flasks ([…]) in 5 ml of Kreb's buffer, dispersed by repetitive pipetting, and centrifuged at 1,200 × g for 5 min. The cell pellets were resuspended in Kreb's buffer and larger cellular aggregates were allowed to settle for 5 min. The finely dispersed cell suspensions were taken for further experimentation.
Binding assays were performed in a total volume of 250-400 ul of Kreb's buffer containing [^3 H]PK 11195 (0.07-20 nM) with 5 ug of cellular protein. Incubations were conducted at 37° C. for 30 min and bound radioligand was measured by filtration through Whatman GF/C filters followed by four rapid 5 ml washes with 25 mM Tris-HCl (pH 7.4) containing 1 uM PK 11195. Filters were subjected to liquid scintillation counting. Nonspecific binding was measured in the presence (of 10 uM nonradioactive PK 11195.

[2] = tested on: purified rat Leydig cells; assay: Testosterone production by purified rat Leydig cells, basal and hCG stimulated; conditions: for Testosterone, No Additions / stimulation of testosterone production / effect on testosterone production (in words): basal; for Testosterone, No Additions / Testosterone, hCG (50 ng/ml): 4 hours at 32° C., mean ± S.D. n = 3; for Testosterone, No Additions: control 1.30 ± 0.20; for Testosterone, hCG (50 ng/ml): control 15.13 ± 2.05; for stimulation of testosterone production / effect on testosterone production (in words): purified rat Leydig cells; for stimulation of testosterone production: 240 min
MA-10 Leydig cells = assay: Progesterone production in MA-10 Leydig cells; type: cell-based, mouse; conditions: MA-10 cells, 4 hours incubation
Protocol: (§2) Cells--The MA-10 cell line originally cloned from the solid M5480P mouse Leydig cell tumor used in these experiments was obtained from Dr. Mario Ascoli (The Population Council, Rockefeller University, N.Y.). Stock cultures were grown in modified Waymouth's MB752/1 medium containing 20 mM HEPES, 1.2 g/l NaHCO3 and 15% horse serum, pH 7.4 as described by Ascoli (1981) Endocrinology 108, 88-95. Before use, the MA-10 Leydig cells were washed three times, in 30 min intervals, with serum-free media in order to eliminate serum components that may interfere with the assays and incubated for the indicated periods of time in the presence of the indicated substances. Testicular interstitial cells were prepared by enzymatic dissociation of testes obtained from adult Sprague-Dawley (300 g) rats. This preparation contained 20-30% 3β-hydroxysteroid dehydrogenase positive cells (Leydig cells). Leydig cells were further purified using discontinuous Percoll gradient centrifugation as described by Papadopoulos et al., 1985 FEBS Letters 188, 312-316. The preparations obtained contained 75-85% Leydig cells as shown by the histochemical staining for 3β-hydroxysteroid dehydrogenase by the procedure of Papadopoulos et al., FEBS Letters 188, supra. [^3 H]PK 11195 binding assays--Cells were scraped from 75 cm^2 culture flasks into 5 ml of Kreb's buffer, dispersed by trituration, and centrifuged at 1,200 × g for 5 min. The cell pellets were resuspended in buffer and larger cell aggregates were allowed to settle to the bottom of the tube before the cell suspension was retrieved for experimentation.
Steroid Biosynthesis--These experiments were performed with the MA-10 Leydig cells plated in 12×22 mm wells and incubated for the times shown and in the presence of the indicated substances at a final volume of 1 ml of serum-free media at 37° C. […]
Progesterone and 20-γ-hydroxyprogesterone production for the MA-10 cells, and testosterone accumulation for the rat Leydig cells were measured by means of radioimmunoassay. […]

PBR in MA-10 cells = biological target: T2, PBR in MA-10 cells (Mus musculus, UniProt P50637); assay: [3H]PK 11195 binding in MA-10 Leydig cells; conditions: 37° C.
T2 construct: endogenous in cells; host or cells: MA-10 mouse Leydig tumor cells (from Dr. Mario Ascoli)
Protocol: as §2
[^3 H]PK 11195 binding studies on 5 ug of protein from the cell suspensions were performed in 250-400μl of Kreb's buffer at 37° C., essentially the same conditions under which the
effects of the compounds on steroidogenesis were studied. Nonspecific binding was determined in the presence of 10 μM PK 11195. […] Radioactivity trapped on the filters was determined by liquid scintillation counting. […]

[3] = Serum testosterone after intravenous alpidem in rats (dosing studies); type: in vivo; conditions: adult Sprague-Dawley rats
Protocol: Alpidem was suspended in isotonic saline by sonication and administered intravenously to adult Sprague-Dawley rats (200-300 g). The doses used ranged from 0.01-1.5 mg/kg, the highest concentration being just below the level needed for behavioral effects to be observed. Control rats were injected with saline alone to serve as control for measurement of basal serum levels of testosterone. After specific times the rats were killed by decapitation and blood was collected. Serum was prepared and testosterone was measured by radioimmunoassay. Each point included three rats for all permutations of each time point and concentration of alpidem used.

Y-1 adrenocortical cells = assay: Steroid (20-hydroxyprogesterone) secretion in Y-1 cells; type: cell-based, mouse
Protocol: as §1
Measurement of steroid production--These experiments were performed with the Y-1 cells plated in 12--22 mm wells and incubated for the times shown at a final volume of 1 ml of serum-free media at 37° C. […] Steroid production was determined by measuring 20-γ-hydroxyprogesterone, the main steroid product of these cells, using a radioimmunoassay with an antibody donated by Dr. G. Nieswender (Univ. of Colorado, Fort Collins), under the process described in Kowal J. (1970), Recent Progress in Hormone Research 26, 623-687 and Schimmer B.P. (1981) in Functionally Differentiated Cell Lines, ed. […]

[4] = read-out: dissociation constant (Scatchard analysis)

T1 sequence (P50637 whole entry): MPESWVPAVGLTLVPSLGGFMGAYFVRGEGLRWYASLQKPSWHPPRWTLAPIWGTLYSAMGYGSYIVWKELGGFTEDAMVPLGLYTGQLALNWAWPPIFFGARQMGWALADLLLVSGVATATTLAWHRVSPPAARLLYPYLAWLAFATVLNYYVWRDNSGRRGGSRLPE
T2 sequence (P50637 whole entry): as above

CC(Cc1cc(-c2ccccc2)nc2ccccc12)C(=O)N(C)C (single isomer, unassigned; (+)) [PK 14068, (+) N,N-dimethyl-x-methyl-2-phenyl-4-quinoline propanamide]
rank order of compound displacement potency against [3H]PK 11195 binding [1]: alpidem>PK 11195>PK 14067>4'-chlorodiazepam>zolpidem>PK 14608, diazepam>flunitrazepam>clonazepam>flumazenil | Testosterone, No Additions ([2]; compound 10^-5 M): 1.16 ± 0.15 ng/10^5 cel s/4 hours | Testosterone, hCG (50 ng/ml) ([2]; compound 10^-5 M): 13.50 ± 1.51 ng/10^5 cel s/4 hours

CC(Cc1cc(-c2ccccc2)nc2ccccc12)C(=O)N(C)C (single isomer, unassigned; (-)) [PK 14067, (-) N,N-dimethyl-x-methyl-2-phenyl-4-quinoline propanamide]
rank order of compound displacement potency against [3H]PK 11195 binding [1]: alpidem>PK 11195>PK 14067>4'-chlorodiazepam>zolpidem>PK 14608, diazepam>flunitrazepam>clonazepam>flumazenil | stimulation of progesterone production (MA-10 Leydig cells): 3 to 4 fold | Testosterone, No Additions ([2]; compound 10^-6 M): 2.20 ± 0.30 ng/10^5 cel s/4 hours | Testosterone, hCG (50 ng/ml) ([2]; compound 10^-6 M): 14.13 ± 1.49 ng/10^5 cel s/4 hours

CCC(C)N(C)C(=O)c1cc2ccccc2c(-c2ccccc2Cl)n1 (stereo not drawn) [PK 11195, 1-(2-chlorophenyl)-N-methyl-N-(l-methylpropyl)-3-isoquinoline carboxamide]
Bmax [1]: 54 pmol/mg of protein | time to reach binding equilibrium [1]: ≤ 15 min | rank order of compound displacement potency against [3H]PK 11195 binding [1]: alpidem>PK 11195>PK 14067>4'-chlorodiazepam>zolpidem>PK 14608, diazepam>flunitrazepam>clonazepam>flumazenil | Kd [1, 4]: 1.8 nM | density of binding sites (PBR in MA-10 cells): 56 pmol/mg of protein | time to reach steady-state specific binding (PBR in MA-10 cells): 10 min | Kd (PBR in MA-10 cells; [4]): 1.8 nM | stimulation of progesterone production (MA-10 Leydig cells): 3 to 4 fold | Testosterone, No Additions ([2]; compound 10^-6 M): 2.33 ± 0.21 ng/10^5 cel s/4 hours | Testosterone, hCG (50 ng/ml) ([2]; compound 10^-6 M): 14.86 ± 1.51 ng/10^5 cel s/4 hours | stimulation of testosterone production [2]: about 2 fold

CCCN(CCC)C(=O)Cc1c(-c2ccc(Cl)cc2)nc2ccc(Cl)cn12 [alpidem]
time for which elevated testosterone levels were maintained [3]: at least 4 hours | increase in serum testosterone levels ([3]; doses greater than or equal to 0.01 mg/kg): 2-4 times above control levels | rank order of compound displacement potency against [3H]PK 11195 binding [1]: alpidem>PK 11195>PK 14067>4'-chlorodiazepam>zolpidem>PK 14608, diazepam>flunitrazepam>clonazepam>flumazenil | stimulation of progesterone production (MA-10 Leydig cells): 3 to 4 fold | Testosterone, No Additions ([2]; compound 10^-7 M): 2.35 ± 0.27 ng/10^5 cel s/4 hours | Testosterone, hCG (50 ng/ml) ([2]; compound 10^-7 M): 15.02 ± 2.31 ng/10^5 cel s/4 hours | stimulation of testosterone production [2]: about 2 fold

O=C1CN=C(c2ccccc2Cl)c2cc([N+](=O)[O-])ccc2N1 [clonazepam]
rank order of compound displacement potency against [3H]PK 11195 binding [1]: alpidem>PK 11195>PK 14067>4'-chlorodiazepam>zolpidem>PK 14608, diazepam>flunitrazepam>clonazepam>flumazenil | effect on steroid production (in words) (Y-1 adrenocortical cells): failed to stimulate steroid production | Testosterone, No Additions ([2]; compound 10^-5 M): 1.16 ± 0.11 ng/10^5 cel s/4 hours | Testosterone, hCG (50 ng/ml) ([2]; compound 10^-5 M): 14.90 ± 2.22 ng/10^5 cel s/4 hours | effect on testosterone production (in words) [2]: no effect

CN1C(=O)CN=C(c2ccccc2)c2cc(Cl)ccc21 [diazepam]
rank order of compound displacement potency against [3H]PK 11195 binding [1]: alpidem>PK 11195>PK 14067>4'-chlorodiazepam>zolpidem>PK 14608, diazepam>flunitrazepam>clonazepam>flumazenil | Testosterone, No Additions ([2]; compound 10^-5 M): 1.90 ± 0.10 ng/10^5 cel s/4 hours | Testosterone, hCG (50 ng/ml) ([2]; compound 10^-5 M): 14.96 ± 3.09 ng/10^5 cel s/4 hours | effect on testosterone production (in words) [2]: less potent

CCOC(=O)c1ncn2c1CN(C)C(=O)c1cc(F)ccc1-2 [flumazenil]
rank order of compound displacement potency against [3H]PK 11195 binding [1]: alpidem>PK 11195>PK 14067>4'-chlorodiazepam>zolpidem>PK 14608, diazepam>flunitrazepam>clonazepam>flumazenil | effect on steroid production (in words) (Y-1 adrenocortical cells): failed to stimulate steroid production

CN1C(=O)CN=C(c2ccccc2F)c2cc([N+](=O)[O-])ccc21 [flunitrazepam]
rank order of compound displacement potency against [3H]PK 11195 binding [1]: alpidem>PK 11195>PK 14067>4'-chlorodiazepam>zolpidem>PK 14608, diazepam>flunitrazepam>clonazepam>flumazenil

Cc1ccc(-c2nc3ccc(C)cn3c2CC(=O)N(C)C)cc1 [zolpidem]
rank order of compound displacement potency against [3H]PK 11195 binding [1]: alpidem>PK 11195>PK 14067>4'-chlorodiazepam>zolpidem>PK 14608, diazepam>flunitrazepam>clonazepam>flumazenil
